Results reported in patent US20100273895A1, “FORMULATIONS OF CANNABIDIOL AND PRODRUGS OF CANNABIDIOL AND METHODS OF USING THE SAME” (AllTranz Inc., priority 2009, published 2010).

Test: CBD accelerated stability study at 40° C.
Assay type: physicochemical
Description: In order to assess the stability of cannabidiol formulations, the pH rate profiles over a range of probable pHs were studied. The rate profile with the lowest Kdeg would be desirable in order to ensure a two-year shelf life for a cannabidiol gel. The pH ranges studied were 4.0, 5.0, 5.5, 6.0, 6.5 and 7.0 prepared with either an acetate (0.01M: pH 4.0, 5.0 and 5.5) or phosphate (0.01 M: pH 6.0, 6.5 and 7.0) buffer system and maintained at an ionic strength of 0.154 M with NaCl at 40° C. CBD was prepared at 1 mg/mL and analyzed initially at a theoretical 10 μg/ml concentration. The results of these studies appear in FIGS. 13 and 14.
Additional stability studies were conducted with CBD synthesized by alternate routes. […] Over sixty-five days, the purity of CBD is still greater than 99%.

[1] = sixty-five day accelerated stability study at 40° C.

SMILES: C=C(C)[C@@H]1CCC(C)=C[C@H]1c1c(O)cc(CCCCC)cc1O [CBD, cannabidiol]
- 28.9 min peak as share of the total area compared to the CBD peak (65 days in a 40° C. chamber): approximately 0.74%
- purity of CBD (over sixty-five days): greater than 99%
- degradation [1]: no significant degradation
- purity remaining [1]: > 98%
